Results reported in patent US6949573B2, “Nicotinamide derivatives useful as PDE4 inhibitors” (Pfizer Inc, priority 2002, dated 2005).
pIC50: −log10 of the molar value.

Test system: human peripheral blood mononuclear cells
Assay: Inhibition of LPS-stimulated TNFα release from human peripheral blood mononuclear cells (TNFα screen)
Assay type: cell-based
Conditions: LPS-stimulated human PBMC, 18 hours incubation, TNFα in supernatant by ELISA
Procedure: Venous blood Is collected from healthy volunteers and the mononuclear cells purified by centrifugation through Histopaque (ficoll) cushions. TNFα production from these cells is stimulated by addition of lipopolysaccharide. After 18 hours incubation in the presence of LPS, the cell supernatant is removed and the concentration of TNFα in the supernatant determined by ELISA. Addition of PDE4 inhibitors reduces the amount of TNFα produced. An IC50 is determined which is equal to the concentration of compound that gives 50% inhibition of TNFα production as compared to the LPS stimulated control wells.

COC(=O)CCC(=O)NC1CCC(NC(=O)c2cc(F)cnc2Oc2ccc(F)cc2)CC1 (stereo not drawn) [Example 110, Syn-N-(4-{[5-fluoro-2-(4-fluoro-phenoxy)-pyridine-3-carbonyl]-amino}-cyclo-hexyl)-succinamic acid methyl ester]
pIC50: 7.85
